Test results from patent US12492189B2, “Solid forms of an HIV capsid inhibitor” (Gilead Sciences, Inc., priority 2017, dated 2025).

Tests used:
HIV-IIIb = assay: Test A: Antiviral Assay in MT4 Cells; type: cell-based, HIV-1
Method: 1 mL Aliquots of MT4 cells were pre-infected for 3 hours at 37° C. with 25 μL of cell growth medium (mock-infected) or a fresh 1:250 dilution of an HIV-IIIb concentrated ABI stock (0.004 m.o.i.). Infected and uninfected cells were diluted in cell growth media and 35 μL (2000 cells) was added to each well of the assay plates.
Assay plates were then maintained in a humidified, 5% CO2 incubator at 37° C. After 5 days of incubation, 25 μL of 2× concentrated CellTiter-Glo™ Reagent (catalog #G7573, Promega Biosciences, Inc., Madison, WI) was added to each well of the assay plate. Cell lysis was carried out by incubating at room temperature for 10 minutes and then chemiluminescence was read using an Envision plate reader (PerkinElmer).

[1] = Test C: Pharmacokinetic analysis following intravenous administration to Sprague-Dawley rats; type: in vivo
Text: (§2) Pharmacokinetic Analysis Following Intravenous Administration to Sprague-Dawley Rats and Beagle Dogs and Cynomolgous Monkeys
All IV formulations were in solution.
(§3) Each rat IV dosing group consisted of 3 male SD rats. […] The animals were fasted overnight prior to dose administration and up to 4 hr after dosing. Each dog IV dosing group consisted of 3 male, naïve beagle dogs. At dosing, the animals weighed ˜10-12 kg. The animals were fasted overnight prior to dose administration and up to 2 hr after dosing.
(§4) For the IV infusion group, the test compound was administered by intravenous infusion over 30 minutes. The rate of infusion was adjusted according to the body weight of each animal to deliver a dose of 1 mg/kg at 2 mL/kg.
(§5) Serial venous blood samples (approximately 0.4 mL each for rat and 1.0 mL for dog) were taken at specified time points after dosing from each animal. The blood samples were collected into Vacutainer™ tubes (Becton-Disckinson Corp, New Jersey, USA) containing EDTA as the anti-coagulant and were immediately placed on wet ice pending centrifugation for plasma. Centrifugation began within 1 hour of collection. All samples were placed into 96-well tubes and maintained on dry ice prior to storage at approximately −70° C.
(§6) An LC/MS/MS method was used to measure the concentration of test compounds in plasma.
(§7) Non-compartmental pharmacokinetic analysis was performed on the plasma concentration-time data.

[2] = Test C: Pharmacokinetic analysis following intravenous administration to beagle dogs; type: in vivo
Text: as §2
All IV formulations were in solution.
as §3, §4, §5, §6, §7

Human Liver Hepatocytes = assay: Test D: Metabolic Stability in Cultured Human Liver Hepatocytes; type: in vitro ADME
Method: Test D. Metabolic Stability in Cultured Human Liver Hepatocytes
The final hepatocyte concentration was 1 million cells/mL. The hepatocyte/compound reaction mixture was dissolved in InVitroGRO™ KHB buffer (catalog #Z99074, BioreclamationIVT, Inc., Baltimore, MD) at pH 7.4. The incubations were performed in duplicate. A cell free control and a positive control were included in the incubations. The incubations were carried out with gentle shaking in a 37° C. incubator under a humid atmosphere of 95% air/5% CO2 (v/v). Aliquots (100 mL) were removed after 0, 1, 3, and 6 hours and added to 200 mL quenching solution that comprised 0.1% (v/v) TFA in 5% water/95% acetonitrile (v/v). The samples were placed on a shaker for 10 min, followed by centrifugation at 3000 g for 30 min. The samples of the supernatant were analyzed on a Dionex HPLC/PerkinElmer Flow Scintillation Analyzer as described below.
The column was a Phenomenex Synergi fusion RP (150×4.6 mm, 4 mm) maintained at 32 degrees Celsius. Mobile Phase A consisted of 0.1% (v/v) TFA in 99% water/1% acetonitrile (v/v). Mobile Phase B consisted of 0.1% (v/v) TFA in 5% water/95% acetonitrile (v/v). The flow rate was 1 mL/min using a sample injection volume of 100 mL.
Metabolic stability was determined by measuring the change in relative abundance of metabolites and parent over time and calculating from it the rate of disappearance of the parent compound. The stability data was utilized to calculate predicted human hepatic clearance values according to methods known in the art.

[3] = Pharmacokinetic profile after subcutaneous dosing of formulations in dogs (Formulation Examples A-D); type: in vivo; settings: solution in 10% ethanol, 13% water, 6 mg/kg
Method: The suspension was administered to dogs subcutaneously at a dose of 6 mg/kg and the pharmacokinetic (PK) profile was determined.
The solution was administered to dogs subcutaneously at a dose of 6 mg/kg and the pharmacokinetic (PK) profile was determined.
Subjects were orally dosed with this formulation at 6 mg/kg. […] The solution was administered to dogs subcutaneously at a dose of 6 mg/kg and the pharmacokinetic (PK) profile was determined.

pKa of Compound 1 = type: physicochemical
Text: (§1) In solution, the two atropisomers coexist in the ratio of about 1:5 to 1:8 (Isomer A:Isomer B), depending on temperatures and pH.

[4] = Atropisomer equilibrium and interconversion in solution; type: physicochemical
Text: as §1

In the case of `CC(C)(C#Cc1ccc(-c2ccc(Cl)c3c(NS(C)(=O)=O)nn(CC(F)(F)F)c23)c([C@H](Cc2cc(F)cc(F)c2)NC(=O)Cn2nc(C(F)(F)F)c3c2C(F)(F)[C@@H]2C[C@H]32)n1)S(C)(=O)=O` [Compound 1, N—((S)-1-(3-(4-Chloro-3-(methylsulfonamido)-1-(2,2,2-trifluoroethyl)-1H-indazol-7-yl)-6-(3-methyl-3-(methylsulfonyl)but-1-yn-1-yl)pyridin-2-yl)-2-(3,5-difluorophenyl)ethyl)-2-((3bS,4aR)-5,5-difluoro-3-(trifluoromethyl)-3b,4,4a,5-tetrahydro-1H-cyclopropa[3,4]cyclopenta[1,2-c]pyrazol-1-yl)acetamide], the “times more potent in HIV antiviral assay” value (HIV-IIIb; relative to compound A) is reported as “about 9 times”, the “times more potent in HIV antiviral assay” value (HIV-IIIb; relative to compound B) is reported as “about 16 times” and the “times longer in vivo terminal half-life in rat” value ([1]; relative to compound A) is reported as “about 14 times”. The “times lower in vivo clearance in rat” value ([1]; relative to compound A) was “about 10 times”, the “times longer in vivo terminal half-life in rat” value ([1]; relative to compound B) was “about 9 times” and the “times lower in vivo clearance in rat” value ([1]; relative to compound B) was “about 8.6 times”. The “times longer in vivo terminal half-life in dog” value ([2]; relative to compound A) was “about 5 times”, the “times lower in vivo clearance in dog” value ([2]; relative to compound A) was “about 3 times” and the “times longer in vivo terminal half-life in dog” value ([2]; relative to compound B) was “about 4 times”. For the same compound, the “times lower in vivo clearance in dog” value ([2]; relative to compound B) was “about 4 times”, the “Predicted Human Hepatic Clearance” value (Human Liver Hepatocytes; calculated from stability in pooled cryopreserved human hepatocytes, […], up to 6 hours) was 0.01 L/h/kg and the “times more stable in human hepatocytes (lower predicted hepatic clearance)” value (Human Liver Hepatocytes; relative to compound A) was “about 9 times”. The “times more stable in human hepatocytes (lower predicted hepatic clearance)” value (Human Liver Hepatocytes; relative to compound B) was “about 4 times”, the “plasma concentration of Compound 1 at day 28” value ([3]; 77% PEG 200 (200 mg/mL) with 1.2 molar equivalent NaOH (in situ sodium salt), FIG. 29) was “measurable” and the “plasma concentration of Compound 1 at day 28” value ([3]; 77% glycofurol (200 mg/mL) with 1.2 molar equivalent NaOH (in situ sodium salt), FIG. 30) was “measurable”. The pKa (pKa of Compound 1; weak acid, at sulfonamide) was 6.7, the pKa (pKa of Compound 1; weak base, at pyridine) was under 1 and the half-life ([4]; in solution at 37° C., read-out: t½ of re-equilibration of separated atropisomers) was 60 to 120 min. For the same compound, the rotational energy barrier ([4]; rotation along one of the C—C bonds (atropisomers)) was “about 24 kcal/mol”.
Work on `Cn1nc(NS(C)(=O)=O)c2c(Cl)ccc(-c3ccc(C#CC(C)(C)O)nc3[C@H](Cc3cc(F)cc(F)c3)NC(=O)Cn3nc(C(F)(F)F)c4c3C(F)(F)[C@@H]3C[C@H]43)c21` [Compound B, reference compound] yielded an EC50 (HIV-IIIb; Human immunodeficiency virus 1, IIIB, MT4, 120 h) of 2.99 nM.
